According to patent US7022716B2, “Cyclic amine phenyl beta-3 adrenergic receptor agonists” (Wyeth, priority 2000, dated 2006):

Each compound was assayed against T1, human β3 adrenergic receptor (Homo sapiens, UniProt P13945) (assay: cAMP (SPA) response in CHO cells transfected with human β3 adrenergic receptor). Details: maximal response relative to maximal response of isoproterenol at 10^-5 M.
T1 construct: Full length β3 AR clones (402 amino acids) containing the last 6 amino acids of hβ3-AR are prepared; expressed in transfected cells; host or cells: CHO (Chinese hamster ovary) cells
Format: cell-based
Design: key: fraction of maximal isoproterenol (10^-5 M) response
Protocol: Binding to the receptors was measured in Chinese Hamster ovary (CHO) cells that were transfected with adrenergic receptors.
The corresponding primer sequences are described in Mantzoros, C. […] The four fragments are ligated into a pUC 18 plasmid (Gibco-BRL) and sequenced.
CHO cells were grown in 24-well tissue culture plates in Dulbecco's Modified Eagle Media with 10% fetal bovine serum, MEM non-essential amino acids, Penicillin-Streptompycin and Geneticin. On the day of test procedure, growth medium was replaced with preincubation media (Dulbecco's Modified Eagle, Media) and incubated for 30 minutes at 37° C. […] Test compounds were tested over a concentration range of 10^−9 M to 10^−5 M for β3 cells and 10^−8 to 10^−4 M for β1 and β2 transfected cells. Isoproterenol (10^−5 M) was used as an internal standard for comparison of activity. Cells were incubated at 37° C. on a rocker for 30 min with the β3 cells and 15 min for β1 and β2 cells. Incubation was stopped with the addition of 0.2N HCl and neutralized with 2.5N NaOH. The plates, containing the cells and neutralized media, were stored at −20 degrees celsius until ready to test for cAMP using the SPA test kit (Amersham).
Data Analysis and Results: Data collected from the SPA test procedure were analyzed as percent of the maximal isoproterenol response at 10^−5 M. Activity curves were plotted using the SAS statistical and graphics software.

T1 sequence (P13945 whole entry): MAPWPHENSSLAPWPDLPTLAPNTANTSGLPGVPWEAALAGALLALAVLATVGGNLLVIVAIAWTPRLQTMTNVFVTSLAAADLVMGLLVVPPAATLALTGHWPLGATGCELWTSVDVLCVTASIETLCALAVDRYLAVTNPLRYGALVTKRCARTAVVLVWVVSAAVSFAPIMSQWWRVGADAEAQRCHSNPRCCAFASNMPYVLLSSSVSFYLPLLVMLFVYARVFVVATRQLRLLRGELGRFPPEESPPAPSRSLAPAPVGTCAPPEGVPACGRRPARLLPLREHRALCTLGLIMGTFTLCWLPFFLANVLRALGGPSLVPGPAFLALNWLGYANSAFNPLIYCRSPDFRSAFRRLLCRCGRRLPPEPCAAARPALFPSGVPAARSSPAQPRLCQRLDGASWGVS

Structure (SMILES) | IA(β3)
CC(=O)Nc1ccc(S(=O)(=O)Nc2ccc(N3CCC(NCC(O)c4cccc(O)c4)CC3)cc2)cc1 (centres unmarked) [Example 257, N-[4-(4-{4-[2-Hydroxy-2-(3-hydroxy-phenyl)-ethylamino]-piperidin-1-yl}-phenylsulfamoyl)-phenyl]-acetamide] | 0.88
COc1ccc(S(=O)(=O)Nc2ccc(N3CCC(NC[C@H](O)COc4cccc5[nH]c(=O)[nH]c45)CC3)cc2)cc1OC [Example 359, N-{4-[4-({(2S)-2-Hydroxy-3-[(2-oxo-2,3-dihydro-1H-benzimidazol-4-yl)oxy]-propyl}amino)-1-piperidinyl]phenyl}-3,4-dimethoxybenzenesulfonamide] | 0.91
O=c1[nH]c2cccc(OC[C@@H](O)CNC3CCN(c4ccc(NS(=O)(=O)c5ccc(-n6nnn(CCCC7CCCC7)c6=O)cc5)cc4)CC3)c2[nH]1 [Example 277] | 0.58
COc1ccc(S(=O)(=O)Nc2ccc(N3CC(NC[C@H](O)COc4cccc5[nH]c6ccccc6c45)C3)cc2)cc1OC [Example 416, N-[4-(3-{[(2S)-3-(9H-Carbazol-4-yloxy)-2-hydroxypropyl]amino}-1-azetidinyl)phenyl]-3,4-dimethoxybenzenesulfonamide] | 0.48
N#Cc1ccc(S(=O)(=O)N(c2ccc(N3CCC(NC[C@H](O)COc4cccc5[nH]c(=O)[nH]c45)CC3)cc2)S(=O)(=O)c2ccc(C#N)cc2)cc1 [Example 285, 4-Cyano-N-[(4-cyanophenyl)sulfonyl]-N-{4-[4-({(2S)-2-hydroxy-3-[(2-oxo-2,3-dihydro-1H-benzimidazol-4-yl)oxy]propyl}amino)-1-piperidinyl]phenyl}benzenesulfonamide] | 0.76
CC(C)[C@H](NC(=O)c1ccc(N2CCC(NC[C@H](O)c3ccc(O)c(NS(C)(=O)=O)c3)CC2)cc1)C(=O)O [Example 203, (2S)-2-(4-{4-[(2R)-2-Hydroxy-2-(4-hydroxy-3-methanesulfonylamino-phenyl)-ethylamino]-piperidin-1-yl}-benzoylamino)-3-methyl-butyric acid] | 1.1
CC(=O)Nc1ccc(S(=O)(=O)Nc2ccc(N3CCC(NC[C@H](O)c4ccc(O)c(NS(C)(=O)=O)c4)CC3)cc2)cc1 [Example 291, N-{4-[(4-{4-[((2R)-2-Hydroxy-2-{4-hydroxy-3-[(methylsulfonyl)amino]-phenyl}ethyl)amino]-1-piperidinyl}anilino)sulfonyl]phenyl}acetamide] | 1.07
CCCCCCNC(=O)Nc1ccc(S(=O)(=O)Nc2ccc(N3CCC(NC[C@H](O)COc4cccc5[nH]c(=O)[nH]c45)CC3)cc2)cc1 [Example 275, 4-{[(Hexylamino)carbonyl]amino}-N-{4-[4-({(2S)-2-hydroxy-3-[(2-oxo-2,3-dihydro-1H-benzimidazol-4-yl)oxy]propyl}amino)-1-piperidinyl]phenyl}benzenesulfonamide] | 0.73
CCCCCCNC(=O)Nc1ccc(S(=O)(=O)Nc2ccc(N3CCC(NC[C@H](O)COc4ccc(O)c(NS(C)(=O)=O)c4)CC3)cc2)cc1 [Example 310] | 1
CS(=O)(=O)Nc1cc([C@@H](O)CNC2CCN(c3ccc(NS(=O)(=O)CC(=O)O)cc3)CC2)ccc1O [Example 323, [(4-{4-[((2R)-2-Hydroxy-2-{4-hydroxy-3-[(methylsulfonyl)amino]phenyl}ethyl)amino]-1-piperidinyl}anilino)sulfonyl]acetic acid] | 0.92
CS(=O)(=O)Nc1cc(C(O)CNC2CCN(c3ccc(NS(=O)(=O)c4ccc(-c5ccccn5)s4)cc3)CC2)ccc1O (centres unmarked) [Example 294, N-(4-{4-[(2-Hydroxy-2-{4-hydroxy-3-[(methylsulfonyl)amino]phenyl}ethyl)amino]-1-piperidinyl}phenyl)-5-(2-pyridinyl)-2-thiophenesulfonamide] | 1.07
O=C(CN1CCOCC1)Nc1ccc(N2CCC(NC[C@H](O)COc3cccc4[nH]c(=O)[nH]c34)CC2)cc1 [Example 383, N-{4-[4-({(2S)-2-Hydroxy-3-[(2-oxo-2,3-dihydro-1H-benzimidazol-4-yl)oxy]propyl}-amino)-1-piperidinyl]phenyl}-2-(4-morpholinyl)acetamide] | 0.64
CCCCOc1ccc(S(=O)(=O)Nc2ccc(N3CCC(NCC(O)COc4cccc5[nH]c6ccccc6c45)CC3)cc2)cc1 (centres unmarked) [Example 289, 4-Butoxy-N-(4-{4-[3-(9H-carbazol-4-yloxy)-2-hydroxy-propylamino]-piperidin-1-yl}-phenyl)-benzenesulfonamide] | 0.59
COc1ccc(S(=O)(=O)Nc2ccc(N3CCC(NCC(O)c4cccc(O)c4)CC3)cc2)cc1 (centres unmarked) [Example 256, N-(4-{4-[2-Hydroxy-2-(3-hydroxy-phenyl)-ethylamino]-piperidin-1-yl}-phenyl)-4-methoxy-benzenesulfonamide] | 0.85
COc1ccc(S(=O)(=O)Nc2ccc(N3CCC(NCC(O)c4ccc(O)c(NS(C)(=O)=O)c4)CC3)cc2)cc1OC (centres unmarked) [Example 280, N-(4-{4-[(2-Hydroxy-2-{4-hydroxy-3-[(methylsulfonyl)amino]phenyl}ethyl)amino]-1-piperidinyl}phenyl)-3,4-dimethoxybenzenesulfonamide] | 1.16
CCCCCCNC(=O)Nc1ccc(S(=O)(=O)Nc2ccc(N3CCC(NC[C@H](O)c4ccc(O)c(NS(C)(=O)=O)c4)CC3)cc2)cc1 [Example 276, 4-{[(Hexylamino)carbonyl]amino}-N-(4-{4-[((2R)-2-hydroxy-2-{4-hydroxy-3-[(methylsulfonyl)amino]phenyl}ethyl)amino]-1-piperidinyl}phenyl)benzenesulfonamide] | 1.1
CC(=O)Nc1ccc(S(=O)(=O)Nc2ccc(N3CCC(NCC(O)c4ccc(O)c(NS(C)(=O)=O)c4)CC3)cc2)cc1 (centres unmarked) [Example 270, N-{4-[(4-{4-[(2-Hydroxy-2-{4-hydroxy-3-[(methylsulfonyl)amino]phenyl}ethyl)amino]-1-piperidinyl}anilino)sulfonyl]phenyl}acetamide] | 1.09
CCOC(=O)CC(=O)Nc1ccc(N2CCC(NC[C@H](O)c3ccc(O)c(NS(C)(=O)=O)c3)CC2)cc1 [Example 371, Ethyl 3-(4-{4-[((2R)-2-hydroxy-2-{4-hydroxy-3-[(methylsulfonyl)amino]phenyl}-ethyl)-amino]-1-piperidinyl}anilino)-3-oxopropanoate] | 0.91
CS(=O)(=O)Nc1cc([C@@H](O)CNC2CCN(c3ccc(NS(=O)(=O)c4ccc(C(=O)O)cc4)cc3)CC2)ccc1O [Example 317, 4-[(4-{4-[((2R)-2-Hydroxy-2-{4-hydroxy-3-[(methylsulfonyl)amino]phenyl}ethyl)amino]-1-piperidinyl}anilino)sulfonyl]benzoic acid] | 0.97
COc1ccc(Br)cc1S(=O)(=O)Nc1ccc(N2CCC(NC[C@H](O)COc3cccc4[nH]c(=O)[nH]c34)CC2)cc1 [Example 338, 5-Bromo-N-{4-[4-(f{(2S)-2-hydroxy-3-[(2-oxo-2,3-dihydro-1H-benzimidazol-4-yl)oxy]propyl}amino)-1-piperidinyl]phenyl}-2-methoxybenzenesulfonamide] | 1
CS(=O)(=O)Nc1cc(C(O)CNC2CCN(c3ccc(NS(=O)(=O)c4ccc(-n5nnn(CCCC6CCCC6)c5=O)cc4)cc3)CC2)ccc1O (centres unmarked) [Example 288, 4-[4-(3-Cyclopentyl-propyl)-5-oxo-4,5-dihydro-tetrazol-1-yl]-N-(4-{4-[2-hydroxy-2-(4-hydroxy-3-methanesulfonylamino-phenyl)-ethaylamino]-piperidin-1-yl}-phenyl)-benzenesulfonamide] | 1.24
CCOC(=O)CNC(=O)Nc1ccc(N2CCC(NC[C@H](O)c3ccc(O)c(NS(C)(=O)=O)c3)CC2)cc1 [Example 377, Ethyl {[(4-{4-[((2R)-2-hydroxy-2-{4-hydroxy-3-[(methylsulfonyl)amino]phenyl}-ethyl)amino]-1-piperidinyl}anilino)carbonyl]amino}acetate] | 0.66
COc1ccc(S(=O)(=O)Nc2ccc(N3CCC(NC[C@H](O)c4ccc(O)c(O)c4)CC3)cc2)cc1 [Example 266, N-[4-(4-{[(2R)-2-(3,4-Dihydroxyphenyl)-2-hydroxyethyl]amino}-1-piperidinyl)phenyl]-4-methoxybenzenesulfonamide] | 0.86
CC(=O)Nc1ccc(S(=O)(=O)Nc2ccc(N3CCC(NC[C@H](O)c4ccc(O)c(O)c4)CC3)cc2)cc1 [Example 263, N-(4-{[4-(4-{[(2R)-2-(3,4-Dihydroxyphenyl)-2-hydroxyethyl]amino}-1-piperidinyl)anilino]sulfonyl}phenyl)acetamide] | 0.93
O=S(=O)(Nc1ccc(N2CCC(NC[C@H](O)COc3ccc(O)cc3)CC2)cc1)c1ccc(-c2ccccn2)s1 [Example 293, N-[4-(4-{[(2S)-2-Hydroxy-3-(4-hydroxyphenoxy)propyl]amino}-1-piperidinyl)phenyl]-5-(2-pyridinyl)-2-thiophenesulfonamide] | 0.94
CS(=O)(=O)Nc1cc([C@@H](O)CNC2CCN(c3ccc(NC(=O)CC(=O)O)cc3)CC2)ccc1O [Example 372, 3-(4-{4-[((2R)-2-Hydroxy-2-{4-hydroxy-3-[(methylsulfonyl)amino]phenyl}ethyl)amino]-1-piperidinyl}anilino)-3-oxopropanoic acid] | 1
